These results are taken from patent US9725460B2, “Oridonin analogs, compositions, and methods related thereto” (THE BOARD OF REGENTS OF THE UNIVERSITY OF TEXAS SYSTEM, priority 2013, dated 2017).

One data set concerns MCF-7. Put plainly: MTT cancer cell proliferation assay, MCF-7. It counts as cell-based, human. The settings on record: Homo sapiens. A digest of the protocol:
(§1)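 Cells seeded at 1×10^4/well and exposed 48 h to 0.01-100 μM compound (0.01, 0.1, 1, 5, 10, 100 μM) or DMSO. MTT added for a further 4 h, formazan dissolved in DMSO and OD read at 550 nm; quadruplicate wells per concentration. MCF-7 is ER-positive; MDA-MB-231 ER-negative, triple-negative.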

In the next data set the test system is MDA-MB-231. Put plainly: MTT cancer cell proliferation assay, MDA-MB-231. Conditions: Homo sapiens. Type of data set: cell-based, human. The procedure, abridged: as §1
Another data set relates to AsPC1. Nature of the data set: Cancer cell proliferation assay, AsPC1. Type of data set: cell-based. Conditions: Homo sapiens, ASPC1. As to the method: (§2) In Vitro Determination of Effects of Synthesized Diterpenoids on Cancer Cell Proliferation. […] Then MTT solution was removed, and 150 μL of DMSO was added to each well. Absorbance of all wells was determined by measuring OD at 550 nm after a 10 min incubation on a 96-well GlowMaxate absorbance reader (Promega, Madison, Wis.). Each individual compound was tested in quadruplicate wells for each concentration.

The next data set relates to Panc-1. Nature of the data set: Cancer cell proliferation assay, Panc-1. Type of data set: cell-based. Conditions: Homo sapiens, PANC-1. Here is the method: as §2
The next data set relates to DU145. Put plainly: Cancer cell proliferation assay, DU145. It counts as cell-based. The settings on record: Homo sapiens, DU-145.
Data set [1] deals with xenograft tumors (breast cancer MDA-MB-231). Put plainly: MDA-MB-231 xenograft tumor growth in mice. It counts as in vivo. Conditions: 5.0 mg/kg ip; triple-negative MDA-MB-231 xenograft; p<0.0001. From the text:
(§3) FIG. 14. […] Values are mean±SE of three independent experiments.
(§4) In pilot in vivo studies, this compound was further evaluated for its anticancer activity in suppression of tumor growth in the triple-negative breast cancer MDA-MB-231 xenograft model.

Data set [2] is described as follows: Body weight and tolerability in xenograft mice. The settings on record: 5.0 mg/kg ip.
From the text: as §3, §4

The test system of data set [3] is breast, pancreatic, and prostate cancer cell lines. Put plainly: Anti-proliferation effects against cancer cell lines. Type of data set: cell-based, human. Conditions: summary of Tables 1 and 2. Here is the method: (§5) In Vitro Determination of Effects of Synthesized Diterpenoids on Cancer Cell Proliferation. Breast cancer cell lines MCF-7, MDA-MB-231, […] and MCF/ADR were seeded in 96-well plates at a density of 1×10^4 cells/well and treated with DMSO and 0.01, 0.1, 1, 5, 10, and 100 μM of individual compound for 48 h, and then 20 μL of 3-(4,5-dimethylthiazol-2-yl)-2,5-diphenyltetrazolium bromide (MTT) (5 mg/mL in PBS) was added to each well and further incubated for another 4 h. Then MTT solution was removed, and 150 μL of DMSO was added to each well. Absorbance of all wells was determined by measuring OD at 550 nm after a 10 min incubation on a 96-well GlowMaxate absorbance reader (Promega, Madison, Wis.). Each individual compound was tested in quadruplicate wells for each concentration.

Data set [4] has as its system MCF-7/ADR. Nature of the data set: MTT growth inhibition, drug-resistant MCF-7/ADR. Type of data set: cell-based. Conditions: Homo sapiens, NCI/ADR-RES, 24 h, Table 1d; drug-resistant breast cancer cells; mean ± SE of three experiments.
In another data set the test system is MDA-MB-468. Nature of the data set: MTT cancer cell proliferation assay, MDA-MB-468. The settings on record: Homo sapiens, MDA-MB-468, 48 h, Table 3; pyran-fused diterpenoids; MTT 48 h; mean ± SE of three experiments. It counts as cell-based, human. As to the method:
as §5
(§6) The growth inhibitory effects of the newly generated pyran-fused diterpenoids were evaluated in four breast cancer cell lines MCF-7 (ER-positive), MDAMB-231 (ER-negative and triple-negative), MDA-MB-468 (ER-negative and triple-negative) as well as MCF-7/ADR (adriamycin-resistant) using MTT assays as described in the Experimental Section. The capability of these new molecules to inhibit the growth of cancer cells was summarized in Table 3 and compared with that of adriamycin and 1 spontaneously.

Data set [5] relates to MCF-7/ADR. Put plainly: MTT growth inhibition, drug-resistant MCF-7/ADR. The settings on record: Homo sapiens, NCI/ADR-RES, 48 h, Table 3; adriamycin-resistant; MTT 48 h; mean ± SE of three experiments. Type of data set: cell-based, human. Here is the method: as §5, §6
A short description of a further data set: Aqueous solubility. Type of data set: physicochemical. Conditions: water; compound as such; read-out: Aqueous solubility.
Data set [6] deals with acute myeloid leukemic cells. Conditions: Zhou et al., Blood 2007; read-out: IC50, induction of mitochondrial apoptosis; cited from earlier work.
In another data set the test system is leukemia. Conditions: 15 mg/kg; Zhou et al., Blood 2007; cited from earlier work.
Setting [7] is: MCF7, Table 1a, breast cancer, read-out: IC50 (μM) MCF-7.
The mark [8] stands for this setting: MCF7, Table 2b, mean of at least three experiments, read-out: Effect on proliferation MCF-7 (ER positive) (IC50).
Where [9] appears, read: MDA-MB-231, Table 1a, breast cancer, read-out: IC50 (μM) MDA-MB-231.
Where [10] appears, read: MDA-MB-231, Table 2b, mean of at least three experiments, read-out: Effect on proliferation MDA-MB-231 (ER negative) (IC50).
[11] abbreviates: Table 1a, pancreatic cancer, read-out: IC50 (μM) AsPC1.
[12] abbreviates: Table 2b, mean of at least three experiments, read-out: Effect on proliferation AsPC1 (IC50).
Setting [13] is: Table 1a, pancreatic cancer, read-out: IC50 (μM) Panc-1.
[14] abbreviates: Table 2b, mean of at least three experiments, read-out: Effect on proliferation Panc-1 (IC50).
The mark [15] stands for this setting: Table 1a, prostate cancer, read-out: IC50 (μM) DU145.
The mark [16] stands for this setting: Table 2b, mean of at least three experiments, read-out: Effect on proliferation DU145 (IC50).
The mark [17] stands for this setting: MCF7, Table 1c, dienone analogues, mean ± SE of three experiments, read-out: Antiproliferative effect MCF-7 (IC50).
[18] abbreviates: MCF7, Table 2a, A-ring modified analogues, read-out: IC50 (μM) MCF-7.
The mark [19] stands for this setting: MDA-MB-231, Table 1c, dienone analogues, mean ± SE of three experiments, read-out: Antiproliferative effect MDA-MB-231 (IC50).
Where [20] appears, read: MDA-MB-231, Table 2a, A-ring modified analogues, read-out: IC50 (μM) MDA-MB-231.
Where [21] appears, read: Table 2a, A-ring modified analogues, read-out: IC50 (μM) AsPC1.
The mark [22] stands for this setting: Table 2a, A-ring modified analogues, read-out: IC50 (μM) Panc-1.

The structures appear in SMILES notation. Values after ≈ are worked out from the molar mass of the structure shown. Where two headings read alike, the source gives them in different places.

For the compound `C=CCNc1nc2c(s1)CC(C)(C)[C@H]1[C@H](O)[C@@]3(O)OC[C@@]21[C@@H]1CC[C@H]2C(=C)C(=O)[C@]13[C@@H]2O` [CYD-6-18, (5aR,6S,7S,7aR,10S,12aS,12bR,15R)-2-(allylamino)-6,7,15-trihydroxy-5,5-dimethyl-9-methylene-5,5a,6,7,10,11,12,12a-octahydro-4H-7,12b-(epoxymethano)-7a,10-methanocyclohepta[7,8]naphtho[1,2-d]thiazol-8(9H)-one], the IC50 was found to be 0.18 µM in the data set on MCF-7 (setting [7]); 0.2 µM in the data set with MCF-7 (setting [8]); 0.18 µM in the data set on MDA-MB-231 (setting [9]); 0.2 µM with MDA-MB-231 (setting [10]); 1.05 µM in the data set with AsPC1 (setting [11]); 1.1 µM in the data set with AsPC1 (setting [12]). In addition, the IC50 in the data set with Panc-1 (setting [13]) worked out at 1.1 µM; with Panc-1 (setting [14]) it was 1.1 µM; in the data set with DU145 (setting [15]) it was 1.18 µM; in the data set with DU145 (setting [16]), 1.2 µM. The “Inhibition of xenograft tumor growth compared to oridonin at the same dose” value in [1] is “much better effect in inhibiting tumor growth”. Besides, the “Loss of body weight” value in [2] was “no significant loss of body weight”. Besides, in [2], the “Tolerability during the experiments” value is recorded as “tolerated”. Moreover, in data set [3], the “IC50 values, anti-proliferation effects against cancer cell lines” value is listed as “low micromolar to nanomolar”.
For `C=C1C(=O)[C@@]23[C@@H]4OC(C)(C)OC25OC[C@]2(C(=O)C=CC(C)(C)[C@H]2[C@@H]5O)[C@@H]3CC[C@@H]14` [CYD-6-25, (3S,3aR,3a^1R,6aR,7S,7aR,11aS,11bS)-7-hydroxy-5,5,8,8-tetramethyl-15-methylene-3,3a,7,7a,8,11b-hexahydro-1H-6a,11a-(epoxymethano)-3,3a^1-ethanophenanthro[1,10-de][1,3]dioxine-11,14(2H)-dione], the IC50 with MCF-7 (setting [17]) was 0.56 ± 0.31 µM; in the data set with MCF-7 (setting [18]), 1.1 µM; in the data set on MDA-MB-231 (setting [19]), 3.49 ± 1.21 µM; with MDA-MB-231 (setting [20]) it was 5.6 µM; in the data set on AsPC1 (setting [21]), 8.82 µM; in the data set on Panc-1 (setting [22]), 7.93 µM. Moreover, the IC50 with MCF-7/ADR [4] worked out at 5.03 ± 1.91 µM.
For `C=C1C(=O)[C@]23[C@H](O)[C@H]1CC[C@H]2[C@@]12CO[C@]3(O)[C@@H](O)[C@@H]1C(C)(C)C=CC2=O` [CYD-6-58, (4aR,5S,6S,6aR,9S,11aS,11bS,14R)-5,6,14-trihydroxy-4,4-dimethyl-8-methylene-4,4a,5,6,9,10,11,11a-octahydro-1H-6,11b-(epoxymethano)-6a,9-methanocyclohepta[a]naphthalene-1,7(8H)-dione], the IC50 is 1.31 ± 0.25 µM in the data set on MCF-7 (setting [17]); 0.95 µM in the data set on MCF-7 (setting [18]); 2.23 ± 0.68 µM in the data set on MDA-MB-231 (setting [19]); 3.56 µM in the data set on MDA-MB-231 (setting [20]); 2.99 µM in the data set on AsPC1 (setting [21]); above 10 µM in the data set on Panc-1 (setting [22]). The IC50 with MCF-7/ADR [4] was determined as 5.82 ± 2.12 µM.
Consider `C=C1C(=O)[C@@]23[C@@H]4OC(C)(C)OC25OC[C@]2(C(=O)C(C=O)=CC(C)(C)[C@H]2[C@@H]5O)[C@@H]3CC[C@@H]14` [CYD-6-92, (3S,3aR,3a^1R,6aR,7S,7aR,11aS,11bS)-7-hydroxy-5,5,8,8-tetramethyl-15-methylene-11,14-dioxo-2,3,3a,7,7a,8,11,11b-octahydro-1H-6a,11a-(epoxymethano)-3,3a^1-ethanophenanthro[1,10-de][1,3]dioxine-10-carbaldehyde], for which the IC50 was determined as 1.28 ± 0.47 µM with MCF-7 (setting [17]); 1.46 µM in the data set with MCF-7 (setting [18]); 3.46 ± 1.33 µM in the data set with MDA-MB-231 (setting [19]); 6.09 µM in the data set with MDA-MB-231 (setting [20]); 3.57 µM in the data set on AsPC1 (setting [21]); 5.35 µM in the data set with Panc-1 (setting [22]). The compound also registered an IC50 with MCF-7/ADR [4] of 6.55 ± 0.96 µM. Also, the “IC50 values, anti-proliferation effects against cancer cell lines” value in [3] was “low micromolar to nanomolar”.
As for `C=C1C(=O)[C@]23[C@H](O)[C@H]1CC[C@H]2[C@@]12COC3(O)[C@@H](O)[C@@H]1C(C)(C)CC[C@@H]2O` [Oridonin], the IC50 in the data set with MCF-7 (MCF7, 48 h, Table 3, pyran-fused diterpenoids, MTT 48 h, mean ± SE of three experiments, read-out: IC50 (μM) MCF-7) turned out to be 4.36 ± 1.41 µM; with MCF-7 (setting [7]) it was 6.64 µM; in the data set on MCF-7 (MCF7, Table 1b, triazole substituted analogues, mean of three experiments, read-out: IC50 (μM) MCF-7) it was 6.6 µM; with MCF-7 (setting [17]), 4.36 ± 1.41 µM; with MCF-7 (setting [18]), 6.64 µM; in the data set on MCF-7 (setting [8]), 6.6 µM. The IC50 was 28 ± 1.4 µM with MDA-MB-231 (MDA-MB-231, 48 h, Table 3, pyran-fused diterpenoids, MTT 48 h, mean ± SE of three experiments, read-out: IC50 (μM) MDA-MB-231); 29.4 µM in the data set with MDA-MB-231 (setting [9]); 29.4 µM with MDA-MB-231 (MDA-MB-231, Table 1b, triazole substituted analogues, mean of three experiments, read-out: IC50 (μM) MDA-MB-231); 28 ± 1.4 µM in the data set with MDA-MB-231 (setting [19]); 29.4 µM in the data set on MDA-MB-231 (setting [20]); 29.4 µM in the data set on MDA-MB-231 (setting [10]). The IC50 with AsPC1 (setting [11]) came to 34.5 µM; with AsPC1 (setting [12]), 19.3 µM; in the data set with Panc-1 (setting [13]), 13.4 µM; in the data set on Panc-1 (setting [14]), 15.6 µM; in the data set on DU145 (setting [15]), 14.2 µM; in the data set on DU145 (setting [16]) it was 14.2 µM. Moreover, the IC50 is 5.33 ± 1.36 µM in the data set on MDA-MB-468, 34.8 ± 2.54 µM in the data set with MCF-7/ADR [5], above 30 µM in the data set on MCF-7/ADR [4] and 2 µM in data set [6]. For the same compound, the solubility – broadly, the dissolved amount per volume that the medium holds – in the data set “Aqueous solubility” is 1290 µg/mL (≈ 3.54 mM). Also, the “Anti-leukemia activities in murine models” value in the data set with leukemia is given as “substantial anti-leukemia activities with a low side-effect”.
